In patent US20240245711A1, “A 19-NOR C3,3-DISUBSTITUTED C21-N-PYRAZOLYL STEROID FOR THE TREATMENT OF MAJOR DEPRESSIVE DISORDER” (Sage Therapeutics, Inc., priority 2021, published 2024):
Where “and” joins values, the source holds several entries; their conditions need not be identical. Identical values can stand only once.

System: adult subjects with Major Depressive Disorder
Experiment: Phase 3 open-label 1-year study: HAM-D total score, response and remission
Format: in vivo, human
Source text: Secondary Objective: To assess the need for re-treatment with Compound (1) following initial treatment in adults with MDD currently experiencing an MDE over a 1-year period, and to assess the response of initial treatment and re-treatment(s) with Compound (1) following an initial 2-week treatment period in adults with MDD currently experiencing an MDE over a 1-year period.
Secondary Endpoints: The need for re-treatment with Compound (1) as assessed by: time to first re-treatment (Kaplan-Meier curves), number of subjects achieving the requirements for re-treatment, number of re-treatment cycles for each subject, the response of initial treatment and/or re-treatment as assessed by: change from baseline in the 17-item Hamilton Rating Scale for Depression (HAM-D) total score at the end of each 14-day treatment (initial and/or re-treatment) period, HAM-D response at the end of each 14-day treatment (initial and/or re-treatment) period, defined as a ≥50% reduction in HAM-D score from baseline, HAM-D remission at the end of each 14-day treatment (initial and/or re-treatment) period, defined as HAM-D total score≤7, Clinical Global Impression-Improvement (CGI-I) response, defined as “much improved” or “very much improved”, at the end of each 14-day treatment (initial and/or re-treatment) period, change from baseline in Clinical Global Impression-Severity (CGI-S) score at the end of each 14-day treatment (initial and/or re-treatment) period.
Study Population: Subjects were 18-75 years old, diagnosed with major depressive disorder (MDD) with a MADRS total score of ≥28 and a HAM-D total score of ≥20 at Screening and Day 1 (prior to dosing).
Treatment Groups: The 30 mg and 50 mg dose groups were separated by time of enrollment. The study is comprised of two cohorts: one with Compound (1) 30 mg as a starting dose (30 mg Cohort: n=725), an initial cohort with Compound (1) 50 mg as a starting dose (50 mg Cohort: n=199). A patient receiving Compound (1) 30 mg could be dose reduced to 20 mg and patients receiving Compound (1) 50 mg could be dose reduced to 40 mg (based on tolerability). In all cohorts, Compound (1) is self-administered by patients as an oral therapy once nightly with food for 14 days.
Eligible subjects were given Compound (1)—to be taken at home in the evening with meal.
The cohorts pertaining to the different doses that the subjects received were defined as following: • 50 mg cohort: This cohort includes subjects who have initiated treatment with 50 mg and received re-treatment with 50 mg only. • 30 mg cohort: This cohort includes subjects who have initiated treatment with 30 mg regardless of the dose they have received in re-treatments. • Low dose cohort: This cohort includes subjects who have initiated treatment with 30 mg and received re-treatment with 30 mg only. • Dose switch cohort: This cohort includes subjects who have received initial treatment with 30 mg and at least one subsequent re-treatment with 50 mg. • Study Period X: starts on the date of the first dose of Compound (1) in cycle X and goes up to one day prior to the first dose of the next cycle. In some embodiments, X is any number from 1 to 5. • Treatment Period X: starts on the date of the first dose of Compound (1) in cycle X and goes up to one day after the last dose in cycle X. In some embodiments, X is any number from 1 to 5. • Treatment Cycle X: starts on the date of the first dose of Compound (1) in cycle X and goes up to 14 days after the last dose in cycle X. The treatment cycles may be denoted as C1-C5. • Observation period X: starts the day after Treatment Cycle X ends and goes up to one day prior to the start of next treatment cycle. In some embodiments, X is any number from 1 to 5.
Analysis Sets: The safety set was defined as all subjects who were administered study drug. The period-specific safety set includes subjects in the safety set who were administered study drug in the corresponding treatment cycle. […]

[1] = baseline HAM-D score ≥24, Study Period 1, 50 mg Cohort (N = 127), Day 28
[2] = baseline HAM-D score ≥24, Study Period 1, 50 mg Cohort (N = 127), Day 70
[3] = baseline HAM-D score ≥24, Study Period 1, 50 mg Cohort (N = 127), Day 126
[4] = baseline HAM-D score ≥26, Study Period 1, 30 mg Cohort (N = 327), Day 8
[5] = baseline HAM-D score ≥26, Study Period 1, 30 mg Cohort (N = 327), Day 15
[6] = baseline HAM-D score ≥26, Study Period 1, 30 mg Cohort (N = 327), Day 28
[7] = baseline HAM-D score ≥26, Study Period 1, 30 mg Cohort (N = 327), Day 70
[8] = baseline HAM-D score ≥26, Study Period 1, 30 mg Cohort (N = 327), Day 126
[9] = baseline HAM-D score ≥26, Study Period 1, 50 mg Cohort (N = 85), Day 8
[10] = baseline HAM-D score ≥26, Study Period 1, 50 mg Cohort (N = 85), Day 15
[11] = baseline HAM-D score ≥26, Study Period 1, 50 mg Cohort (N = 85), Day 28
[12] = baseline HAM-D score ≥26, Study Period 1, 50 mg Cohort (N = 85), Day 70
[13] = baseline HAM-D score ≥26, Study Period 1, 50 mg Cohort (N = 85), Day 126

C[C@@]1(O)CC[C@H]2[C@H](CC[C@@H]3[C@@H]2CC[C@]2(C)[C@@H](C(=O)Cn4cc(C#N)cn4)CC[C@@H]32)C1 [Compound (1), 1-(2-((3R,5R,8R,9R,10S,13S,14S,17S)-3-hydroxy-3,13-dimethylhexadecahydro-1H-cyclopenta[a]phenanthren-17-yl)-2-oxoethyl)-1H-pyrazole-4-carbonitrile]
HAM-D Response [1]: 74/120 (61.7%)
HAM-D total score, Mean % CFB ± SD [1]: −58.0 ± 25.97%
HAM-D total score, Mean CFB ± SD [1]: −15.7 ± 7.17
HAM-D Remission [2]: 26/79 (32.9%)
HAM-D Response [2]: 43/79 (54.4%)
HAM-D total score, Mean % CFB ± SD [2]: −53.0 ± 28.53%
HAM-D total score, Mean CFB ± SD [2]: −14.4 ± 7.93
HAM-D Remission [3]: 13/17 (76.5%)
HAM-D Response [3]: 14/17 (82.4%)
HAM-D total score, Mean % CFB ± SD [3]: −74.8 ± 27.94%
HAM-D total score, Mean CFB ± SD [3]: −19.9 ± 8.10
HAM-D Response [4]: 138/319 (43.3%)
HAM-D total score, Mean % CFB ± SD [4]: −43.7 ± 25.84%
HAM-D total score, Mean CFB ± SD [4]: −12.6 ± 7.44
HAM-D Response [5]: 220 (71.4%) and 220/308 (71.4%)
HAM-D total score, Mean % CFB ± SD [5]: −60.6 ± 26.28%
HAM-D total score, Mean CFB ± SD [5]: −17.6 ± 7.77
HAM-D Response [6]: 184/305 (60.3%)
HAM-D total score, Mean % CFB ± SD [6]: −55.6 ± 28.46%
HAM-D total score, Mean CFB ± SD [6]: −16.2 ± 8.48
HAM-D Response [7]: 87/170 (51.2%)
HAM-D total score, Mean % CFB ± SD [7]: −49.8 ± 32.15%
HAM-D total score, Mean CFB ± SD [7]: −14.7 ± 9.65
HAM-D Response [8]: 60/82 (73.2%)
HAM-D total score, Mean % CFB ± SD [8]: −65.6 ± 28.15%
HAM-D total score, Mean CFB ± SD [8]: −19.1 ± 8.11
HAM-D Remission [9]: 13/82 (15.9%)
HAM-D Response [9]: 43/82 (52.4%)
HAM-D total score, Mean % CFB ± SD [9]: −49.6 ± 21.15%
HAM-D total score, Mean CFB ± SD [9]: −14.0 ± 6.05
HAM-D Remission [10]: 27 (33.8%) and 27/80 (33.8%)
HAM-D Response [10]: 64 (80.0%) and 64/80 (80.0%)
HAM-D total score, Mean % CFB ± SD [10]: −64.3 ± 20.17%
HAM-D total score, Mean CFB ± SD [10]: −18.2 ± 5.89
HAM-D Remission [11]: 26/80 (32.5%)
HAM-D Response [11]: 51/80 (63.8%)
HAM-D total score, Mean % CFB ± SD [11]: −58.5 ± 24.24%
HAM-D total score, Mean CFB ± SD [11]: −16.6 ± 7.05
HAM-D Remission [12]: 18/56 (32.1%)
HAM-D Response [12]: 30/56 (53.6%)
HAM-D total score, Mean % CFB ± SD [12]: −52.9 ± 28.48%
HAM-D total score, Mean CFB ± SD [12]: −15.1 ± 8.23
HAM-D Remission [13]: 8/10 (80%)
HAM-D Response [13]: 8/10 (80%)
HAM-D total score, Mean % CFB ± SD [13]: −74.2 ± 34.34%
HAM-D total score, Mean CFB ± SD [13]: −21.0 ± 10.12
HAM-D Remission (baseline HAM-D score ≥26, Study Period 1, Table 3: 30 mg Cohort (N = 327), Table 19 head: Low Dose Cohort (N = 327), Day 15): 113 (36.7%) and 113/308 (36.7%)
HAM-D Remission (baseline HAM-D score ≥26, Study Period 1, Table 19: Low Dose Cohort (N = 327), Day 8): 49/319 (15.4%)
HAM-D Remission (baseline HAM-D score ≥26, Study Period 1, Table 19: Low Dose Cohort (N = 327), Day 28): 94/305 (30.8%)
HAM-D Remission (baseline HAM-D score ≥26, Study Period 1, Table 19: Low Dose Cohort (N = 327), Day 70): 43/170 (25.3%)
HAM-D Remission (baseline HAM-D score ≥26, Study Period 1, Table 19: Low Dose Cohort (N = 327), Day 126): 37/82 (45.1%)
